± gives the expanded uncertainty stated by the source.
Legend:
[1] = mn = molality of the nth substance listed, in mol/kg; details: 101 kPa, Liquid; for speed of sound: Sing-around technique in a fixed-path interferometer; for mass density: Vibrating tube method
[2] = cn = amount concentration of the nth substance listed, in mol/dm3; details: 101 kPa, Liquid; for speed of sound: Sing-around technique in a fixed-path interferometer; for mass density: Vibrating tube method

Cc1onc(-c2c(F)cccc2Cl)c1C(=O)N[C@@H]1C(=O)N2[C@@H]1SC(C)(C)[C@@H]2C(=O)[O-].[Na+] + O
[1]
Details	mass density [kg/m3]	speed of sound [m/s]
298.15 K, m1 = 0.03508	1003.21 ± 1	1503 ± 0.77
298.15 K, m1 = 0.05711	1007 ± 1	1506.4 ± 0.77
298.15 K, m1 = 0.07305	1009.68 ± 1	1508.6 ± 0.77
298.15 K, m1 = 0.09335	1013.04 ± 1	1511.2 ± 0.78
298.15 K, m1 = 0.1142	1016.42 ± 1	1513.7 ± 0.78
298.15 K, m1 = 0.1343	1019.68 ± 1	1515.8 ± 0.78
298.15 K, m1 = 0.148	1021.89 ± 1	1517.2 ± 0.78
298.15 K, m1 = 0.1675	1025.02 ± 1	1518.9 ± 0.79
298.15 K, m1 = 0.1812	1027.16 ± 1	1520.1 ± 0.79
303.15 K, m1 = 0.03508	1001.74 ± 1	1514.8 ± 0.77
303.15 K, m1 = 0.05711	1005.49 ± 1	1517.8 ± 0.78
303.15 K, m1 = 0.07305	1008.14 ± 1	1519.9 ± 0.78
303.15 K, m1 = 0.09335	1011.46 ± 1	1522.2 ± 0.78
303.15 K, m1 = 0.1142	1014.8 ± 1	1524.4 ± 0.78
303.15 K, m1 = 0.1343	1018.04 ± 1	1526.4 ± 0.79
303.15 K, m1 = 0.148	1020.23 ± 1	1527.6 ± 0.79
303.15 K, m1 = 0.1675	1023.33 ± 1	1529.2 ± 0.79
303.15 K, m1 = 0.1812	1025.46 ± 1	1530.2 ± 0.79
308.15 K, m1 = 0.03508	1000.05 ± 1	1524.9 ± 0.78
308.15 K, m1 = 0.05711	1003.77 ± 1	1527.6 ± 0.78
308.15 K, m1 = 0.07305	1006.39 ± 1	1529.5 ± 0.78
308.15 K, m1 = 0.09335	1009.67 ± 1	1531.6 ± 0.78
308.15 K, m1 = 0.1142	1012.98 ± 1	1533.5 ± 0.79
308.15 K, m1 = 0.1343	1016.18 ± 1	1535.3 ± 0.79
308.15 K, m1 = 0.148	1018.35 ± 1	1536.4 ± 0.79
308.15 K, m1 = 0.1675	1021.43 ± 1	1537.8 ± 0.79
308.15 K, m1 = 0.1812	1023.54 ± 1	1538.7 ± 0.8
313.15 K, m1 = 0.03508	998.174 ± 1	1533.5 ± 0.78
313.15 K, m1 = 0.05711	1001.85 ± 1	1535.9 ± 0.78
313.15 K, m1 = 0.07305	1004.44 ± 1	1537.5 ± 0.78
313.15 K, m1 = 0.09335	1007.69 ± 1	1539.4 ± 0.79
313.15 K, m1 = 0.1142	1010.97 ± 1	1541.1 ± 0.79
313.15 K, m1 = 0.1343	1014.14 ± 1	1542.7 ± 0.79
313.15 K, m1 = 0.148	1016.29 ± 1	1543.7 ± 0.79
313.15 K, m1 = 0.1675	1019.34 ± 1	1544.9 ± 0.8
313.15 K, m1 = 0.1812	1021.43 ± 1	1545.7 ± 0.8
318.15 K, m1 = 0.03508	996.11 ± 1	1540.5 ± 0.78
318.15 K, m1 = 0.05711	999.746 ± 1	1542.6 ± 0.78
318.15 K, m1 = 0.07305	1002.31 ± 1	1544.1 ± 0.79
318.15 K, m1 = 0.09335	1005.53 ± 1	1545.7 ± 0.79
318.15 K, m1 = 0.1142	1008.77 ± 1	1547.3 ± 0.79
318.15 K, m1 = 0.1343	1011.91 ± 1	1548.7 ± 0.79
318.15 K, m1 = 0.148	1014.05 ± 1	1549.5 ± 0.8
318.15 K, m1 = 0.1675	1017.07 ± 1	1550.6 ± 0.8
318.15 K, m1 = 0.1812	1019.15 ± 1	1551.4 ± 0.8
323.15 K, m1 = 0.03508	993.877 ± 1	1546.1 ± 0.78
323.15 K, m1 = 0.05711	997.477 ± 1	1548 ± 0.79
323.15 K, m1 = 0.07305	1000.02 ± 1	1549.2 ± 0.79
323.15 K, m1 = 0.09335	1003.2 ± 1	1550.7 ± 0.79
323.15 K, m1 = 0.1142	1006.42 ± 1	1552.1 ± 0.79
323.15 K, m1 = 0.1343	1009.52 ± 1	1553.3 ± 0.8
323.15 K, m1 = 0.148	1011.64 ± 1	1554 ± 0.8
323.15 K, m1 = 0.1675	1014.64 ± 1	1555 ± 0.8
323.15 K, m1 = 0.1812	1016.7 ± 1	1555.7 ± 0.8

[Cl-].[Na+] [sodium chloride] + O
[2]
Details	mass density [kg/m3]	speed of sound [m/s]
298.15 K, c1 = 0.0251	998.068 ± 1	–
298.15 K, c1 = 0.0586	999.427 ± 1	1501.1 ± 0.76
298.15 K, c1 = 0.1021	1001.16 ± 1	1503.8 ± 0.76
298.15 K, c1 = 0.1483	1002.99 ± 1	1506.4 ± 0.77
298.15 K, c1 = 0.2047	1005.19 ± 1	1509.4 ± 0.77
298.15 K, c1 = 0.2543	1007.12 ± 1	1511.8 ± 0.77
303.15 K, c1 = 0.0251	996.654 ± 1	1511.3 ± 0.77
303.15 K, c1 = 0.0586	997.998 ± 1	1513.4 ± 0.77
303.15 K, c1 = 0.1021	999.715 ± 1	1516 ± 0.77
303.15 K, c1 = 0.1483	1001.52 ± 1	1518.5 ± 0.77
303.15 K, c1 = 0.2047	1003.7 ± 1	1521.4 ± 0.77
303.15 K, c1 = 0.2543	1005.61 ± 1	1523.6 ± 0.77
308.15 K, c1 = 0.0251	995.026 ± 1	1521.9 ± 0.77
308.15 K, c1 = 0.0586	996.357 ± 1	1524 ± 0.77
308.15 K, c1 = 0.1021	998.056 ± 1	1526.5 ± 0.77
308.15 K, c1 = 0.1483	999.851 ± 1	1528.9 ± 0.77
308.15 K, c1 = 0.2047	1002.01 ± 1	1531.6 ± 0.78
308.15 K, c1 = 0.2543	1003.9 ± 1	1533.7 ± 0.78
313.15 K, c1 = 0.0251	993.201 ± 1	1531 ± 0.77
313.15 K, c1 = 0.0586	994.523 ± 1	–
313.15 K, c1 = 0.1021	996.208 ± 1	1535.5 ± 0.78
313.15 K, c1 = 0.1483	997.991 ± 1	1537.8 ± 0.78
313.15 K, c1 = 0.2047	1000.14 ± 1	1540.3 ± 0.78
313.15 K, c1 = 0.2543	1002.01 ± 1	1542.3 ± 0.78
318.15 K, c1 = 0.0251	991.192 ± 1	1538.5 ± 0.78
318.15 K, c1 = 0.0586	992.506 ± 1	1540.5 ± 0.78
318.15 K, c1 = 0.1021	994.181 ± 1	1542.8 ± 0.78
318.15 K, c1 = 0.1483	995.954 ± 1	1545.1 ± 0.78
318.15 K, c1 = 0.2047	998.089 ± 1	1547.6 ± 0.78
318.15 K, c1 = 0.2543	999.952 ± 1	–
323.15 K, c1 = 0.0251	989.012 ± 1	1544.6 ± 0.78
323.15 K, c1 = 0.0586	990.317 ± 1	1546.5 ± 0.78
323.15 K, c1 = 0.1021	991.983 ± 1	–
323.15 K, c1 = 0.1483	993.747 ± 1	1551 ± 0.78
323.15 K, c1 = 0.2047	995.872 ± 1	1553.4 ± 0.78
323.15 K, c1 = 0.2543	997.725 ± 1	1555.2 ± 0.78

— the NIST ThermoML archive (doi:10.1021/acs.jced.5b00317)
